Experimental data taken from PubChem BioAssay AID1919004 (Molecular Pharmacology Branch, DTP, NCI, 2023).

Test system: 883617-216-R-J1-PDC complex spheroids, growth, % test/control
Test: Anticancer human tumor 883617-216-R-J1-PDC patient-derived bladder carcinoma cell line growth inhibition [AhR]
Details: for IC50: curve of first compound; for viability, T/C: stronger effect = lower value
Procedure, shortened: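 Agents were dosed in half-log steps down from roughly clinical Cmax, or from 10 microM where Cmax was unknown, alone and with AhR antagonists. Read-out: percent test/control growth of tumor spheroids containing HUVEC and MSC stromal cells.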

[1] = second compound 0.1 µM, first compound 0.0316 µM
[2] = second compound 0.1 µM, first compound 0.1 µM
[3] = second compound 0.1 µM, first compound 0.316 µM
[4] = second compound 0.1 µM, first compound 1 µM
[5] = second compound 0.1 µM, first compound 3.16 µM
[6] = second compound 0.1 µM, first compound 10 µM
[7] = second compound 0.316 µM, first compound 0.0316 µM
[8] = second compound 0.316 µM, first compound 0.1 µM
[9] = second compound 0.316 µM, first compound 0.316 µM
[10] = second compound 0.316 µM, first compound 1 µM
[11] = second compound 0.316 µM, first compound 3.16 µM
[12] = second compound 0.316 µM, first compound 10 µM
[13] = second compound 1 µM, first compound 0.0316 µM
[14] = second compound 1 µM, first compound 0.1 µM
[15] = second compound 1 µM, first compound 0.316 µM
[16] = second compound 1 µM, first compound 1 µM
[17] = second compound 1 µM, first compound 3.16 µM
[18] = second compound 1 µM, first compound 10 µM
[19] = second compound 3.16 µM, first compound 0.0316 µM
[20] = second compound 3.16 µM, first compound 0.1 µM
[21] = second compound 3.16 µM, first compound 0.316 µM
[22] = second compound 3.16 µM, first compound 1 µM
[23] = second compound 3.16 µM, first compound 3.16 µM
[24] = second compound 3.16 µM, first compound 10 µM
[25] = second compound 10 µM, first compound 0.0316 µM
[26] = second compound 10 µM, first compound 0.1 µM
[27] = second compound 10 µM, first compound 0.316 µM
[28] = second compound 10 µM, first compound 1 µM
[29] = second compound 10 µM, first compound 3.16 µM
[30] = second compound 10 µM, first compound 10 µM
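Also: exposure lasted 7 days after dosing on day 3 of spheroid growth.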

In the case of CC1(C)CCC(CN2CCN(c3ccc(C(=O)NS(=O)(=O)c4ccc(NCC5CCOCC5)c([N+](=O)[O-])c4)c(Oc4cnc5[nH]ccc5c4)c3)CC2)=C(c2ccc(Cl)cc2)C1 + Cc1cncc(-c2nc(NCCc3c[nH]c4ccccc34)c3ncn(C(C)C)c3n2)c1, the IC50 (second compound 0.1 µM) is reported as 6.16 µM, the IC50 (second compound 0.316 µM) is reported as 6.29 µM and the IC50 (second compound 1 µM) is reported as 5.92 µM. It also gave an IC50 (second compound 3.16 µM) of 8.25 µM, an IC50 (second compound 10 µM) of over 10 µM and a viability, T/C [1] of 85.7%. For the same compound, the viability, T/C [2] was 88.8%, the viability, T/C [3] was 90% and the viability, T/C [4] was 78.6%. For the same compound, the viability, T/C [5] was 80.4%, the viability, T/C [6] was 28.5% and the viability, T/C [7] was 97.3%. The viability, T/C [8] was 99.2%, the viability, T/C [9] was 94.2% and the viability, T/C [10] was 88.5%. The viability, T/C [11] was 82.2%, the viability, T/C [12] was 29% and the viability, T/C [13] was 86.5%. It also gave a viability, T/C [14] of 89.7%, a viability, T/C [15] of 87.7% and a viability, T/C [16] of 84.5%. For the same compound, the viability, T/C [17] was 82.5%, the viability, T/C [18] was 23% and the viability, T/C [19] was 99.1%. For the same compound, the viability, T/C [20] was 108%, the viability, T/C [21] was 115% and the viability, T/C [22] was 97.2%. It also gave a viability, T/C [23] of 106%, a viability, T/C [24] of 38.9% and a viability, T/C [25] of 49.4%. The viability, T/C [26] was 52.6%, the viability, T/C [27] was 57.1% and the viability, T/C [28] was 61.4%. It also gave a viability, T/C [29] of 72% and a viability, T/C [30] of 37.3%.

Compound CCN(c1cc(-c2ccc(CN3CCOCC3)cc2)cc(C(=O)NCc2c(C)cc(C)[nH]c2=O)c1C)C1CCOCC1 + Cc1cncc(-c2nc(NCCc3c[nH]c4ccccc34)c3ncn(C(C)C)c3n2)c1 has an IC50 (second compound 0.1 µM) of over 3 µM, an IC50 (second compound 0.316 µM) of over 3 µM and an IC50 (second compound 1 µM) of over 3 µM. The IC50 (second compound 3.16 µM) was over 3 µM, the IC50 (second compound 10 µM) was under 0.00949 µM and the viability, T/C (second compound 0.1 µM, first compound 0.00949 µM) was 93.3%. For the same compound, the viability, T/C (second compound 0.1 µM, first compound 0.03 µM) was 109%, the viability, T/C (second compound 0.1 µM, first compound 0.0949 µM) was 94.1% and the viability, T/C (second compound 0.1 µM, first compound 0.3 µM) was 96.6%. The viability, T/C (second compound 0.1 µM, first compound 0.949 µM) was 98.2%, the viability, T/C (second compound 0.1 µM, first compound 3 µM) was 91.6% and the viability, T/C (second compound 0.316 µM, first compound 0.00949 µM) was 103%. The viability, T/C (second compound 0.316 µM, first compound 0.03 µM) was 94.4%, the viability, T/C (second compound 0.316 µM, first compound 0.0949 µM) was 97.1% and the viability, T/C (second compound 0.316 µM, first compound 0.3 µM) was 96.2%. It also gave a viability, T/C (second compound 0.316 µM, first compound 0.949 µM) of 98.6%, a viability, T/C (second compound 0.316 µM, first compound 3 µM) of 96.4% and a viability, T/C (second compound 1 µM, first compound 0.00949 µM) of 103%. For the same compound, the viability, T/C (second compound 1 µM, first compound 0.03 µM) was 102%, the viability, T/C (second compound 1 µM, first compound 0.0949 µM) was 110% and the viability, T/C (second compound 1 µM, first compound 0.3 µM) was 105%. It also gave a viability, T/C (second compound 1 µM, first compound 0.949 µM) of 97.8%, a viability, T/C (second compound 1 µM, first compound 3 µM) of 107% and a viability, T/C (second compound 3.16 µM, first compound 0.00949 µM) of 93.7%. The viability, T/C (second compound 3.16 µM, first compound 0.03 µM) was 102%, the viability, T/C (second compound 3.16 µM, first compound 0.0949 µM) was 112% and the viability, T/C (second compound 3.16 µM, first compound 0.3 µM) was 96.5%. The viability, T/C (second compound 3.16 µM, first compound 0.949 µM) was 107%, the viability, T/C (second compound 3.16 µM, first compound 3 µM) was 110% and the viability, T/C (second compound 10 µM, first compound 0.00949 µM) was 52.3%. The viability, T/C (second compound 10 µM, first compound 0.03 µM) was 46.9%, the viability, T/C (second compound 10 µM, first compound 0.0949 µM) was 47.2% and the viability, T/C (second compound 10 µM, first compound 0.3 µM) was 43.2%. It also gave a viability, T/C (second compound 10 µM, first compound 0.949 µM) of 27.3% and a viability, T/C (second compound 10 µM, first compound 3 µM) of 15.5%.

In the case of Cn1ncnc1C1c2n[nH]c(=O)c3cc(F)cc(c23)NC1c1ccc(F)cc1 (stereo not given) + Cc1cncc(-c2nc(NCCc3c[nH]c4ccccc34)c3ncn(C(C)C)c3n2)c1, the IC50 (second compound 0.1 µM) is reported as over 0.1 µM, the IC50 (second compound 0.316 µM) is reported as over 0.1 µM and the IC50 (second compound 1 µM) is reported as over 0.1 µM. For the same compound, the IC50 (second compound 3.16 µM) was over 0.1 µM, the IC50 (second compound 10 µM) was over 0.1 µM and the viability, T/C (second compound 0.1 µM, first compound 0.000316 µM) was 97.3%. The viability, T/C (second compound 0.1 µM, first compound 0.001 µM) was 97.5%, the viability, T/C (second compound 0.1 µM, first compound 0.00316 µM) was 82.8% and the viability, T/C (second compound 0.1 µM, first compound 0.01 µM) was 80.6%. For the same compound, the viability, T/C [1] was 78%, the viability, T/C [2] was 75.2% and the viability, T/C (second compound 0.316 µM, first compound 0.000316 µM) was 90.7%. For the same compound, the viability, T/C (second compound 0.316 µM, first compound 0.001 µM) was 97.4%, the viability, T/C (second compound 0.316 µM, first compound 0.00316 µM) was 90.1% and the viability, T/C (second compound 0.316 µM, first compound 0.01 µM) was 86.5%. It also gave a viability, T/C [7] of 90.1%, a viability, T/C [8] of 80.9% and a viability, T/C (second compound 1 µM, first compound 0.000316 µM) of 100%. For the same compound, the viability, T/C (second compound 1 µM, first compound 0.001 µM) was 101%, the viability, T/C (second compound 1 µM, first compound 0.00316 µM) was 97.2% and the viability, T/C (second compound 1 µM, first compound 0.01 µM) was 87.5%. The viability, T/C [13] was 82.7%, the viability, T/C [14] was 88.7% and the viability, T/C (second compound 3.16 µM, first compound 0.000316 µM) was 106%. The viability, T/C (second compound 3.16 µM, first compound 0.001 µM) was 106%, the viability, T/C (second compound 3.16 µM, first compound 0.00316 µM) was 102% and the viability, T/C (second compound 3.16 µM, first compound 0.01 µM) was 103%. For the same compound, the viability, T/C [19] was 98.2%, the viability, T/C [20] was 95.1% and the viability, T/C (second compound 10 µM, first compound 0.000316 µM) was 51%. It also gave a viability, T/C (second compound 10 µM, first compound 0.001 µM) of 56.3%, a viability, T/C (second compound 10 µM, first compound 0.00316 µM) of 56.5% and a viability, T/C (second compound 10 µM, first compound 0.01 µM) of 61.2%. For the same compound, the viability, T/C [25] was 56.3% and the viability, T/C [26] was 62.6%.

For NS(=O)(=O)OCC1CC(n2ccc3c(NC4CCc5ccccc54)ncnc32)CC1O (stereo not given) + Cc1cncc(-c2nc(NCCc3c[nH]c4ccccc34)c3ncn(C(C)C)c3n2)c1, the IC50 (second compound 0.1 µM) was 2.75 µM, the IC50 (second compound 0.316 µM) was 2.99 µM and the IC50 (second compound 1 µM) was 2.79 µM. For the same compound, the IC50 (second compound 3.16 µM) was 2.26 µM, the IC50 (second compound 10 µM) was under 0.0316 µM and the viability, T/C [1] was 118%. For the same compound, the viability, T/C [2] was 165%, the viability, T/C [3] was 209% and the viability, T/C [4] was 131%. For the same compound, the viability, T/C [5] was 43.6%, the viability, T/C [6] was 29.1% and the viability, T/C [7] was 128%. The viability, T/C [8] was 164%, the viability, T/C [9] was 225% and the viability, T/C [10] was 120%. The viability, T/C [11] was 44.5%, the viability, T/C [12] was 25.9% and the viability, T/C [13] was 141%. The viability, T/C [14] was 167%, the viability, T/C [15] was 212% and the viability, T/C [16] was 130%. The viability, T/C [17] was 48%, the viability, T/C [18] was 30.1% and the viability, T/C [19] was 141%. The viability, T/C [20] was 179%, the viability, T/C [21] was 204% and the viability, T/C [22] was 112%. The viability, T/C [23] was 33.2%, the viability, T/C [24] was 15.4% and the viability, T/C [25] was 48.1%. It also gave a viability, T/C [26] of 50.6%, a viability, T/C [27] of 28.6% and a viability, T/C [28] of 6.98%. It also gave a viability, T/C [29] of 4.81% and a viability, T/C [30] of 2.51%.
